The structures appear in SMILES notation. pEC50, pIC50: −log10 of the molar value.

Usually pIC50 stands for −log10 of the IC50, conventionally taken in molar units. The term IC50 denotes the concentration at which inhibition is half-maximal.

One data set relates to Teschovirus. Description: organism not typed. As to conditions: read-out: Inhibition [ED50 (μM)] against various viruses: Picornavirus, Teschovirus. Format: cell-based, porcine teschovirus.
The test system of a further data set is MNV-1. Description: Cell-based screening, MNV-1 in RAW267.4 cells (Example 2). On the set-up: species or system murine norovirus. Particulars: Norwalk virus; RAW267.4 cells; read-out: Inhibition [ED50 (μM)] against various viruses: Calicivirus, MNV-1. The method, then:
(§1) 3. Cell-based screening of inhibitor. The effects of each inhibitor on the viral replication were examined. The list of viruses and corresponding cell lines are listed above in Table 2. Briefly, confluent cells were inoculated with virus at a MOI of 5 or 0.05 for 1 hr, and medium was replaced with medium containing mock-medium or each compound (up to 100 μM). The virus infected cells were further incubated for up to 96 hrs, and the replication of virus was measured by TCID50 assay with the 10-fold dilution of each sample used for virus titration (Reed and Muench, 1938). In some viruses, the virus protein and genome expression levels were detected by Western blot analysis and real-time qRT-PCR, respectively, as described below. The IC50s of the compounds were calculated.

Data set [1] has as its target Norwalk virus 3CL protease (NV3CL protease), recombinant (Norovirus, UniProt Q83883). Kind of data set: Recombinant NV protease FRET inhibition assay (Edans-[…]-Dabcyl substrate), FIG. 4. Format: biochemical. As to conditions: 2.5 μM enzyme, 300 nM Edans-EPDFHLQGPEDLAK-Dabcyl, 30 min incubation, 30° C., pH 8.0. The method, then: (§2) After a 30 minute incubation period, 5 μL of 12 μM Edans-[…]-Dabcyl (SEQ ID NO:1) substrate in DMSO was then added and the increase in fluorescence was monitored for 30 minutes at an excitation and emission wavelength of 360 and 460 nm, respectively. Using a HORIBA FluoroMax 4 spectrofluorometer. Hydrolysis curves were linear. The final enzyme and substrate concentrations were 2.5 μM and 300 nM, respectively. […] Furthermore, the nature of the cap was also important (compare, for example, inhibitors A and D).

A short description of data set [2]: PK and oral bioavailability studies in rats. As to conditions: 20 mg/Kg (body weight), IV or PO.
Data set [3] addresses recombinant 3C or 3CL of MD145 (Norovirus Hu/GII.4/MD145-12/1987/US (Maryland virus), UniProt Q8V0P3). Description: FRET protease assay, MD145 3CL (Example 2). Format: biochemical, norovirus strain MD145.
The test system of data set [4] is FCV. Kind of data set: Cell culture system, FCV replication in CRFK cells (Example 3). As to conditions: Feline calicivirus; cell-based assay, CRFK cells; read-out: IC50 against FCV replication. Format: cell-based, feline calicivirus.
Data set [5] deals with FCV. Description: Cell-based screening, FCV in CRFK cells (Example 2). Particulars: Feline calicivirus; CRFK cells; read-out: Inhibition [ED50 (μM)] against various viruses: Calicivirus, FCV. Here is the method:
as §1

Another data set has as its system EV71. Kind of data set: Cell-based screening, EV71 in Vero cells (Example 2). Details: species or system enterovirus 71. Particulars: Enterovirus A, EV71; Vero cells; read-out: Inhibition [ED50 (μM)] against various viruses: Picornavirus, EV71. Here is the method: as §1
The target in the next data set is TGEV 3CL protease (Porcine transmissible gastroenteritis coronavirus, UniProt P0C6Y5). Kind of data set: FRET-based protease assay, TGEV 3CL protease (Example 5). The data set is classed as biochemical, TGEV Miller strain. The text has this:
The 3CL proteases are highly conserved among all coronaviruses, and feline coronavirus 3CL protease is closely related TGEV 3CL protease. Therefore we cloned and expressed the TGEV 3CL protease for the FRET assay. The cDNA encoding the full length of 3CL protease of TGEV Miller strain was amplified with RT-PCR as previously described. The primers contained the nucleotide sequence of the 3CL protease for cloning as well as the nucleotides for 6 Histidine in the forward primer. The amplified product was subcloned to pET-28a(+) vector (GenScript, Piscataway, N.J.). The expression and purification of the 3CL protease was performed with a standard method described previously by our lab (Chang et al., 2012b; Takahashi et al., 2012; Tiew et al., 2011).
Our protease inhibitor compounds and commercial cathepsin inhibitors CA074-Me and E64d were prepared in DMSO as stock solutions (10 mM), and further diluted in assay buffer consisting of 20 mM HEPES, 0.4 mM EDTA, 30% glycerol, 120 mM NaCl, and 4 mM DTT at pH 6. […] TGEV 3CL protease at a final concentration of 0.1˜0.2 μM and the substrate (Dabcyl-[…]-Edans; SEQ ID NO:2) at 10 μM were used for the studies. The substrate was purchased from Bachem Americas, Inc (Torrance, Calif.). Compounds at various concentrations (0˜50 μM) were pre-incubated with TGEV 3CL protease in 25 μl for 30 min at 37° C., and the same volume of substrate was added to a 96-well black plate. The mixtures were then incubated at 37° C. for 60 min, and fluorescence readings were obtained on a microplate reader at 360 nm excitation and 480 nm emission wavelengths. The relative fluorescence units (RFU) were calculated by subtracting background (substrate control well without protease) from the fluorescence readings. The dose-dependent FRET inhibition curves were fitted with variable slope (four parameters) using GraphPad Prism software (La Jolla, Calif.) in order to determine the compound concentration that gives a half-maximum response (IC50).

The test system of data set [6] is murine norovirus-1 (MNV-1). Description: MNV-1 replication in RAW267.4 cells, TCID50 (Example 1). Format: cell-based. Particulars: Norwalk virus, MOI 2, TCID50 assay, read-out: ED50, replication of murine norovirus (MNV).
The target in data set [7] is Norwalk virus 3CL protease (Norovirus, UniProt Q83883). Description: Recombinant NV protease fluorogenic substrate inhibition assay (Example 1). The data set is classed as biochemical. Particulars: 30 min pre-incubation, 30° C., pH 8.0. Here is the method:
as §2

Chain of TGEV 3CL protease (P0C6Y5 2879-3180): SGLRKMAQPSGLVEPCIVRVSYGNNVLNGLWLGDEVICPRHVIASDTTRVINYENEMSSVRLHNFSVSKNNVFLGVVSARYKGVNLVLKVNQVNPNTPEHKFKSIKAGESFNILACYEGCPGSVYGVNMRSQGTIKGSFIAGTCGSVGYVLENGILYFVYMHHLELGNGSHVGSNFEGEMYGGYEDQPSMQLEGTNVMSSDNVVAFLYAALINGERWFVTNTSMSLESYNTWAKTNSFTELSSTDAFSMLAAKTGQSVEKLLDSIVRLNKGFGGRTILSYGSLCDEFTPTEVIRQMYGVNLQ
Chain of recombinant 3C or 3CL of MD145 (Q8V0P3 entry or part of it): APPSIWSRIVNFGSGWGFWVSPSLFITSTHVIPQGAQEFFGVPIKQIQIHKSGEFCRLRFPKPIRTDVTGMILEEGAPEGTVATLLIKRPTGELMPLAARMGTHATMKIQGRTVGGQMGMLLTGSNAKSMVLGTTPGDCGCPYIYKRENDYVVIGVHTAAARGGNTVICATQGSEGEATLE
Chain of Norwalk virus 3CL protease (NV3CL protease), recombinant (Q83883 1101-1281): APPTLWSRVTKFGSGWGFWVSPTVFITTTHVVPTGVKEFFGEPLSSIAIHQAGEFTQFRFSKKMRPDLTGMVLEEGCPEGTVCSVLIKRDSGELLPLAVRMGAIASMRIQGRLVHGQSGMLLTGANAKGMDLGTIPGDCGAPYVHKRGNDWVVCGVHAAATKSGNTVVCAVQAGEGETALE
Chain of Norwalk virus 3CL protease (Q83883 1101-1281): as above

As to `CC(C)C[C@H](NC(=O)OCc1ccccc1)C(=O)N[C@H](C=O)C[C@@H]1CCNC1=O` [GC373], the EC50 in the data set on Teschovirus came to 0.15 µM; in the data set on MNV-1 it was 6.5 µM; with FCV [5], 65 µM; in the data set with EV71 it was 11 µM. In addition, the pIC50 in [1] was 5.74; in the data set on FCV [4] it was 4.19; at TGEV 3CL protease (TGEV 3CL protease, read-out: IC50 against 3CL protease in the FRET assay), 6.01. Also, the “oral bioavailability, % F” value in data set [2] is listed as 3 % F. Also, the half-inhibitory concentration (IC50) in data set [3] was determined as 20.3 µM. Also, the “inhibition of the activity of TGEV 3CL protease (in words)” value on TGEV 3CL protease (compound at 50 μM final concentration) is “remarkably inhibited”. Moreover, the pEC50 in data set [6] was 5.26. In addition, the “inhibitory activity against Norwalk virus 3CL protease (in words)” value in [7] is reported as “dose-dependent inhibition”.

Values taken from patent US9474759B2 (priority 2011, dated 2016).
